{
  "source": "patent US20200071667A1",
  "about": "“COMPOSITION COMPRISING GLYCYRRHIZIN FOR INDUCING DIFFERENTIATION INTO MYELOID-DERIVED SUPPRESSOR CELL FROM MYELOID CELL” (Konkuk University Glocal Industry-Academic Collabo, priority 2018, published 2020)",
  "key": {"[1]": {"tested_on": "myeloid cells having a phenotype of CD31+", "experiment": "Myeloid cell proliferation after glycyrrhizin treatment without LPS stimulation", "format": "cell-based, mouse", "conditions": "100, 200 or 300 μg/ml; cultured 48 hours; without stimulation by LPS", "protocol": "It was examined whether myeloid cells are capable of proliferating even when treated with glycyrrhizin alone without stimulation of the myeloid cells with LPS.\nSpecifically, myeloid cells having a phenotype of CD31+ were isolated from mouse myeloid cells obtained in the same manner as in Example 2-2. The myeloid cells were treated with glycyrrhizin at a concentration of 100 μg/ml, 200 μg/ml, or 300 μg/ml, and then cultured for 48 hours. As a control, the myeloid cells were treated with 0.1 ml of PBS. Subsequently, the expression level of myeloid cells was examined by the same flow cytometric analysis as that used in Example <2-1>."}, "mouse myeloid cells": {"tested_on": "mouse myeloid cells", "experiment": "Differentiation into CD11b+Gr1 myeloid cells by glycyrrhizin concentration and culture time, flow cytometric analysis", "format": "cell-based", "conditions": "for expression level of CD11b+Gr1 myeloid cells: 300 μg/ml", "protocol": "Flow cytometric analysis was performed to determine whether the concentration of glycyrrhizin with which myeloid cells were treated or culture time affects differentiation into CD11b+Gr1 myeloid cells from myeloid cells.\nSpecifically, mouse myeloid cells were obtained in the same manner as in Example <2-2>, treated with glycyrrhizin at a concentration of 100 μg/ml, 200 μg/ml, or 300 μg/ml, and then cultured for 24 hours or 48 hours. As a control, the myeloid cells were treated with 0.1 ml of PBS. Subsequently, the expression level of the myeloid cells was examined by the same flow cytometric analysis as that used in Example <2-1>."}, "iNOS": {"tested_on": "iNOS", "experiment": "iNOS measurement by RT-PCR in glycyrrhizin-treated myeloid cells", "format": "cell-based, mouse", "conditions": "100, 200 or 300 μg/ml, cultured 48 hours, vs negative control", "protocol": "Specifically, myeloid cells were isolated from mice of the control of Example 1, treated with glycyrrhizin at a concentration of 100 μg/ml, 200 μg/ml, or 300 μg/ml, and then cultured for 48 hours. Thereafter, RT-PCR was performed. As a negative control, the myeloid cells were treated with 0.1 ml of PBS, and GAPDH was used as an expression control."}, "T cells": {"tested_on": "T cells", "experiment": "T cell activity measurement by CFSE analysis with glycyrrhizin-induced CD11b+Gr1 myeloid cells as stimulator cells", "format": "cell-based, mouse", "conditions": "stimulator cells from 300 μg/ml glycyrrhizin, 48 hours; responder:stimulator 1:1, 1:2, 1:4; 3 days", "protocol": "Specifically, mouse myeloid cells were obtained in the same manner as in Example <2-2>, treated with 300 μg/ml of glycyrrhizin, and then cultured for 48 hours. Subsequently, CD11b+Gr1 myeloid cells induced to be differentiated were stained and separated with FACSAria to be used as stimulator cells, and for responder cells, T cells were isolated with FACSAria from splenocytes of mice of the control of Example 1 and stained with CFSE. The responder cells and the stimulator cells were treated with CD3 and CD28, which induce the activity of T cells, at a ratio of 1:1, 1:2, or 1:4 and further cultured for 3 days."}},
  "data": [
    {"smiles": "CC1(C)[C@@H](O[C@H]2O[C@H](C(=O)O)[C@@H](O)[C@H](O)[C@H]2O[C@@H]2O[C@H](C(=O)O)[C@@H](O)[C@H](O)[C@H]2O)CC[C@]2(C)[C@H]3C(=O)C=C4[C@@H]5C[C@@](C)(C(=O)O)CC[C@]5(C)CC[C@@]4(C)[C@]3(C)CC[C@@H]12", "note": "[glycyrrhizin, ammonium glycyrrhizinate]", "values": [
      {"measurement": "proliferation of the myeloid cells", "setting": "[1]", "value": "increased in a manner dependent upon the concentration of glycyrrhizin"},
      {"measurement": "expression level of CD11b+Gr1 myeloid cells", "setting": "mouse myeloid cells; cultured 24 hours (control 9.10%)", "value": 29.5, "unit": "%"},
      {"measurement": "expression level of CD11b+Gr1 myeloid cells", "setting": "mouse myeloid cells; cultured 48 hours (control 10.8%)", "value": 53.1, "unit": "%"},
      {"measurement": "expression level of CD11b+Gr1 myeloid cells, concentration dependence", "setting": "mouse myeloid cells; 100, 200 or 300 μg/ml, cultured 24 hours", "value": "increased in a concentration-dependent manner"},
      {"measurement": "expression level of iNOS", "setting": "iNOS", "value": "increased in a concentration-dependent manner"},
      {"measurement": "activity of T cells", "setting": "T cells", "value": "the higher the proportion of the stimulator cells (CD11b+Gr1 myeloid cells), the lower the activity of T cells"}
    ]}
  ]
}
